SMILES strings stand for the structures.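 1) Cells in 96-well plates. 2) Compound, 48 h, 5 concentrations. 3) Linear interpolation between surrounding doses. 4) Unreached endpoint = highest concentration. GI50 = concentration required for 50% inhibition of growth. The concentration for full growth arrest is given as TGI.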 Bounds are passed on as bounds.

Test systems include A498 renal; CAKI-1 renal; CCRF-CEM leukemia; COLO 205 colon; DU-145 prostate; HOP-62 NSCLC; OVCAR-8 ovarian; RPMI-8226 leukemia; RXF 393 renal; SR leukemia.
What all share (assay): NCI tumour cell line growth inhibition, 48 h

For the molecule `CC(C)c1ccc2c(N=Nc3ccc(S(N)(=O)=O)cc3)c(O)[nH]c2c1`, the GI50 with A498 renal is greater than 21.5 µM; in the experiment with CAKI-1 renal, 24.9 µM; with CCRF-CEM leukemia, greater than 25 µM; in the experiment with COLO 205 colon it was greater than 25 µM; with DU-145 prostate it was 12.5 µM; in the experiment with HOP-62 NSCLC it was 5.54 µM. The GI50 is 10.3 µM in the experiment with OVCAR-8 ovarian, greater than 25 µM in the experiment on RPMI-8226 leukemia, 4.41 µM in the experiment on RXF 393 renal and greater than 16.2 µM in the experiment with SR leukemia. Besides, the TGI was greater than 25 µM with A498 renal; greater than 25 µM with CAKI-1 renal; greater than 25 µM in the experiment with CCRF-CEM leukemia; greater than 25 µM in the experiment on COLO 205 colon; greater than 25 µM with DU-145 prostate; 12.6 µM in the experiment on HOP-62 NSCLC. The TGI is greater than 20.1 µM with OVCAR-8 ovarian, greater than 25 µM in the experiment on RPMI-8226 leukemia, greater than 16 µM in the experiment on RXF 393 renal and greater than 25 µM in the experiment on SR leukemia.

As to `Nc1ccccc1/C=N\Nc1ccccc1`, the GI50 in the experiment on A498 renal is greater than 100 µM; in the experiment with CAKI-1 renal it was 1.02 µM; in the experiment on CCRF-CEM leukemia, 0.431 µM; in the experiment on COLO 205 colon, 25.2 µM; in the experiment with DU-145 prostate, greater than 100 µM; with HOP-62 NSCLC it was greater than 100 µM. The GI50 in the experiment with OVCAR-8 ovarian is greater than 100 µM; with RPMI-8226 leukemia, greater than 100 µM; in the experiment on RXF 393 renal, greater than 100 µM; in the experiment with SR leukemia it was 26.6 µM. The TGI in the experiment with A498 renal, in the experiment with CAKI-1 renal, in the experiment on CCRF-CEM leukemia, in the experiment with COLO 205 colon, with DU-145 prostate and in the experiment on HOP-62 NSCLC was greater than 100 µM in each case. Also, the TGI in the experiment on OVCAR-8 ovarian, with RPMI-8226 leukemia, in the experiment on RXF 393 renal and with SR leukemia was greater than 100 µM each time.

For the molecule `C(=N/Nc1ncnc2nc[nH]c12)/c1ccccn1`, the GI50 in the experiment on A498 renal is 6.17 µM; in the experiment with CAKI-1 renal it was 0.308 µM; in the experiment on CCRF-CEM leukemia, 0.227 µM; with COLO 205 colon it was 1.72 µM; in the experiment on DU-145 prostate, 0.596 µM; in the experiment on HOP-62 NSCLC, 0.687 µM. In addition, the GI50 in the experiment with OVCAR-8 ovarian was 0.393 µM; in the experiment with RPMI-8226 leukemia, 3.9 µM; in the experiment with RXF 393 renal it was 1.92 µM; in the experiment with SR leukemia, 0.4 µM. In addition, the TGI in the experiment on A498 renal is greater than 100 µM; in the experiment with CAKI-1 renal, 2.64 µM; in the experiment on CCRF-CEM leukemia it was greater than 100 µM; in the experiment with COLO 205 colon, greater than 100 µM; in the experiment with DU-145 prostate, greater than 49.3 µM; in the experiment on HOP-62 NSCLC, greater than 100 µM. The TGI in the experiment with OVCAR-8 ovarian is greater than 100 µM; with RPMI-8226 leukemia it was greater than 100 µM; with RXF 393 renal, 7.32 µM; in the experiment on SR leukemia it was greater than 100 µM.

Turning to `CC(=O)Oc1ccc2ccc(=O)oc2c1OC(C)=O`, the TGI in the experiment on A498 renal was greater than 100 µM; with CAKI-1 renal, greater than 100 µM; with CCRF-CEM leukemia, 46.1 µM; in the experiment on COLO 205 colon it was 63.1 µM; with DU-145 prostate, greater than 100 µM; in the experiment with HOP-62 NSCLC it was greater than 100 µM. Moreover, the TGI with OVCAR-8 ovarian was greater than 100 µM; in the experiment with RPMI-8226 leukemia it was greater than 100 µM; in the experiment with RXF 393 renal it was 71.4 µM; in the experiment with SR leukemia it was greater than 100 µM.

As for `CCOC(=O)c1ccc2c(c1)[n+](=O)c(C(=O)c1ccc3ccccc3c1)c(C(F)(F)F)n2[O-]`, the GI50 is 1.66 µM in the experiment with A498 renal; 1.42 µM with CAKI-1 renal; 0.4 µM in the experiment on CCRF-CEM leukemia; 1.52 µM in the experiment with COLO 205 colon; 1.78 µM in the experiment on DU-145 prostate; 1.66 µM in the experiment with HOP-62 NSCLC. Further, the GI50 with OVCAR-8 ovarian is 1.28 µM; in the experiment with RPMI-8226 leukemia, 1.1 µM; in the experiment on RXF 393 renal, 1.73 µM; in the experiment with SR leukemia, 0.331 µM. The TGI in the experiment on A498 renal was 3.09 µM; in the experiment on CAKI-1 renal it was 2.85 µM; in the experiment with CCRF-CEM leukemia it was 2.29 µM; in the experiment on COLO 205 colon, 2.87 µM; in the experiment with DU-145 prostate, 3.16 µM; in the experiment on HOP-62 NSCLC it was 3.08 µM. Moreover, the TGI was determined as 2.7 µM in the experiment with OVCAR-8 ovarian, 3.63 µM in the experiment on RPMI-8226 leukemia, 3.26 µM in the experiment on RXF 393 renal and 1.6 µM with SR leukemia.

Turning to `CCc1ccc(CCC(=O)Nc2ncc(Cc3cc(Cl)ccc3Cl)s2)o1`, the GI50 in the experiment with A498 renal is 1.19 µM; in the experiment on CAKI-1 renal, 0.774 µM; with CCRF-CEM leukemia, 0.843 µM; with COLO 205 colon, 1.26 µM; in the experiment with DU-145 prostate it was 1.74 µM; in the experiment with HOP-62 NSCLC, 2.01 µM. Further, the GI50 in the experiment on OVCAR-8 ovarian was 2.25 µM; in the experiment on RPMI-8226 leukemia, 1.21 µM; in the experiment on RXF 393 renal it was 1.19 µM; in the experiment on SR leukemia, 0.22 µM. Further, the TGI was 3.46 µM in the experiment with A498 renal; 12.1 µM in the experiment on CAKI-1 renal; greater than 50 µM with CCRF-CEM leukemia; 11 µM with COLO 205 colon; greater than 50 µM in the experiment with DU-145 prostate; 16.9 µM with HOP-62 NSCLC. In addition, the TGI was greater than 50 µM in the experiment with OVCAR-8 ovarian, 6.92 µM with RPMI-8226 leukemia, 6.87 µM in the experiment on RXF 393 renal and 7.92 µM in the experiment with SR leukemia.

Regarding `CCOC(=O)C1=C(N)Oc2c(sc3c(C)cccc23)C1c1ccc(Cl)cc1` (centres undefined), the GI50 with A498 renal was 1 µM; in the experiment on CAKI-1 renal, 1.2 µM; with CCRF-CEM leukemia, 3.65 µM; in the experiment on COLO 205 colon it was 3.46 µM; in the experiment on DU-145 prostate, 3.89 µM; in the experiment on HOP-62 NSCLC, 3.81 µM. Also, the GI50 was 4.24 µM in the experiment with OVCAR-8 ovarian, 3.26 µM in the experiment with RPMI-8226 leukemia, 1.45 µM in the experiment with RXF 393 renal and 1.49 µM in the experiment with SR leukemia. For the same molecule, the TGI in the experiment with A498 renal was found to be 7.09 µM; in the experiment with CAKI-1 renal, 17.3 µM; with CCRF-CEM leukemia, 24.1 µM; in the experiment with COLO 205 colon, 14.1 µM; in the experiment on DU-145 prostate, 14.1 µM; in the experiment on HOP-62 NSCLC, 21.8 µM. The TGI is 20.7 µM in the experiment on OVCAR-8 ovarian, 13.1 µM in the experiment with RPMI-8226 leukemia, 4.47 µM in the experiment with RXF 393 renal and 18 µM in the experiment with SR leukemia.

With `COc1cc(C(=O)NC2CCN(C)CC2)ccc1Nc1ncc2c(n1)N(C1CCCC1)CC(F)(F)C(=O)N2C`, the GI50 with A498 renal was 0.028 µM; in the experiment on CAKI-1 renal it was 1.86 µM; in the experiment on CCRF-CEM leukemia it was less than 0.01 µM; in the experiment with COLO 205 colon it was less than 0.01 µM; in the experiment on DU-145 prostate, less than 0.01 µM; with HOP-62 NSCLC, less than 0.0167 µM. The GI50 is less than 0.01 µM with OVCAR-8 ovarian, 0.054 µM in the experiment with RXF 393 renal and less than 0.01 µM with SR leukemia. Besides, the TGI was 0.272 µM in the experiment on A498 renal; 12.2 µM in the experiment on CAKI-1 renal; 12.2 µM in the experiment with CCRF-CEM leukemia; 0.064 µM with COLO 205 colon; 0.0621 µM in the experiment with DU-145 prostate; 2.61 µM with HOP-62 NSCLC. The TGI with OVCAR-8 ovarian was 18.3 µM; in the experiment with RPMI-8226 leukemia, 8.33 µM; with RXF 393 renal, 11.8 µM; in the experiment with SR leukemia, 0.448 µM.

(Values after PubChem BioAssay (NCI).)
